Measured values published in patent US9249128B2 (priority 2010, dated 2016).
Read-outs that look alike come from different tables or passages of the source.

Assays:
PC3 and DU145 cells = experiment: Serum-free cell survival assay (WST-1); type: cell-based, human; settings: for PC3 and DU145 serum-free cell survival: 10 μM, 4 h in situ
Description: (§1) Inhibitors were dissolved in DMSO and diluted into media or buffer prior to cell or proteome treatment, respectively. For in vitro treatment, final DMSO concentration was 4%. For in situ treatments of cells for ABPP, lipid measurements, migration, cell-survival, and invasion assays, 2×10^6 cells were seeded in 6 cm dishes (˜100% confluency) 24 h prior to inhibitor pre-treatment (in DMSO at 0.1% final concentration) in serum-free media (3 mL) for the designated time before harvesting cells for ABPP or lipid measurements or before the initiation of migration, cell-survival, and invasion assays.
Cell migration, cell survival, and invasion studies were performed as previously described (Nomura et al., 2010). Briefly, migration assays were performed in Transwell chambers (Corning) with 8 μm pore-sized membranes coated with 10 μg/mL collagen at 37° C. for LNCaP (24 h), PC3 (4 h) and DU145 cells (24 h), respectively. Cell survival assays were performed using the Cell Proliferation Reagent WST-1 (Roche) Invasion assays were conducted using the BD Matrigel Invasion Chambers per the manufacturer's protocol. Inhibitors were preincubated for the stated duration before seeding cells into migration, cell-survival, or invasion chambers. Prior to seeding the cells in these chambers, cells were serum-starved for 4 h. Inhibitors were also present during the migration, cell-survival, and invasion assays.

[1] = test system: MAGE levels in PC3 and DU145 cells; experiment: Lipid (MAGE) measurements in cancer cells; type: cell-based, human; settings: for MAGE levels: 10 μM, 4 h in situ
Description: as §1
Lipid measurements were performed in cancer cells as previously described (Chiang et al., 2006). Briefly, frozen cell pellets from cells harvested after 4 h serum starvation were extracted in 2:1:1 chloroform:methanol:Tris buffer pH 8.0 by dounce homogenization with 10 nmol of internal standard C12 MAGE. The organic layer was removed, dried under N2, and resuspended in 120 μL of chloroform, and 30 μL was injected into an Agilent 1100-MSD LC-MS. MAGE levels were quantified by measuring the area under the peak and were normalized to the C12 MAGE internal standard.

KIAA1363 = biological target: T1, KIAA1363 (Mus musculus, UniProt Q8BLF1); experiment: Gel-based competitive ABPP of KIAA1363 in mouse brain membrane proteome (FP-rhodamine); type: biochemical
T1 construct: ABPP analysis of KIAA1363 activity in mouse brain membrane proteome; from tissue; host or cells: mouse brain (membrane fraction)
T1 sequence (Q8BLF1 1-408): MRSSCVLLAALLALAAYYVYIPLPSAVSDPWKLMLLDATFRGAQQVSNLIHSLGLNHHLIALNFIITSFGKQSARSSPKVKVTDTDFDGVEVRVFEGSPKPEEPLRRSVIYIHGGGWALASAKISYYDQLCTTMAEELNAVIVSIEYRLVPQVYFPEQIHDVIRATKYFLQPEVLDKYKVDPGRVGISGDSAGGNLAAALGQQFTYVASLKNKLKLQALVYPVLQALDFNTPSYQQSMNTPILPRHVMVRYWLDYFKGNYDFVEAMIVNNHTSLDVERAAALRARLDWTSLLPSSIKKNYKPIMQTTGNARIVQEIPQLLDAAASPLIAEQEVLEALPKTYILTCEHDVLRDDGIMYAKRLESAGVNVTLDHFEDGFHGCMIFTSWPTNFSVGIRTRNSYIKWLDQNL
How it was run: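 Mouse brain membrane fraction (100,000×g pellet) in PBS pH 7.4, preincubated with inhibitor 30 min, then labelled with 1 μM FP-rhodamine for 30 min. Remaining KIAA1363 activity read by SDS/PAGE in-gel fluorescence. IC50 averaged from three replicates.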

AChE = biological target: T2, AChE (Mus musculus, UniProt P21836); experiment: AChE activity assay with acetylthiocholine in mouse brain proteome; type: biochemical; settings: for Cross-reactivity with AChE: acetylthiocholine hydrolysis in mouse brain membrane proteome; for IC50: mouse brain proteome, substrate acetylthiocholine, n=3, read-out: IC50 for AChE (FIG. 2D)
T2 construct: 20 μg of cell lysate or mouse brain membrane proteome; from tissue; host or cells: mouse brain (membrane proteome)
T2 sequence (P21836 32-614): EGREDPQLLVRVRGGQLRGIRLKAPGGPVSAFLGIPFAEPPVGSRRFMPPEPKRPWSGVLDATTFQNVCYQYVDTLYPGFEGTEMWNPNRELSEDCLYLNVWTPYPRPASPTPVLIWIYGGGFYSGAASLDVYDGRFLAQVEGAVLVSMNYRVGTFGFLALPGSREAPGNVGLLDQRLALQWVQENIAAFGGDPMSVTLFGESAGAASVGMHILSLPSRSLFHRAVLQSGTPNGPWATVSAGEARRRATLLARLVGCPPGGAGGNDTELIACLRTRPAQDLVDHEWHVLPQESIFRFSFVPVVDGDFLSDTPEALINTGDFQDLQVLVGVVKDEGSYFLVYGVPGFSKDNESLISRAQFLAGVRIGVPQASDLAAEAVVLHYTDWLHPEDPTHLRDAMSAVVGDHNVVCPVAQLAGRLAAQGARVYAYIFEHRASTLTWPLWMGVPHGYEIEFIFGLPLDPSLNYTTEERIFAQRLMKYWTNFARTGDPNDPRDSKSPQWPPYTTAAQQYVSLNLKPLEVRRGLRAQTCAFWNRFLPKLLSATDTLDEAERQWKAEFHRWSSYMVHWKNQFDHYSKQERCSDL
Description: AChE activity was measured using a method similar to that described previously (Ellman et al., 1961). Briefly, 50 μL of 10 mM acetylthiocholine was added to 200 μL of PBS containing 2 mM DTNB and 20 μg of cell lysate or mouse brain membrane proteome. Absorbance was measured at 412 nm over 5 min, and the rate of product accumulation was calculated from the slope of the absorbance over time. For assays involving preincubation with inhibitors, the reactions were prepared without acetylthiocholine and JW480 was incubated at the indicated concentration for 30 min at 37° C. Acetylthiocholine was then added and the assay was carried out exactly as described above.

[2] = competitive ABPP in mouse brain proteome, n=3, read-out: IC50 for KIAA1363 (FIG. 2D)
[3] = mouse brain KIAA1363, read-out: IC50 for KIAA1363
[4] = mouse brain membrane proteome, inhibitor 30 min before FP-rhodamine (1 μM, 30 min), averages of three replicates, read-out: IC50 (KIAA1363)

Row | Structure (SMILES) | PC3 and DU145 serum-free cell survival (PC3 and DU145 cells) | MAGE levels [1] | IC50 (KIAA1363; [2]) | IC50 (KIAA1363; [3]) | IC50 (KIAA1363; [4]) | IC50 (KIAA1363; screened against KIAA1363, Table 1, read-out: IC50 values of less than 1 micromolar) | Cross-reactivity with AChE (AChE) | IC50 (AChE) | Serum-free cell survival of PC3 cells (PC3 and DU145 cells; 1 μM, 48 h in situ) | MAGE lipids ([1]; 1 μM, 48 hr) | IC50 (KIAA1363; screened against KIAA1363, Table 1, read-out: IC50 values of around 10 nanomolar (most potent))
1 | COc1ccc(CNC(=O)Oc2cccc3c2OC(C)(C)C3)cc1 [JW148, 2,2-dimethyl-2,3-dihydrobenzofuran-7-yl 4-methoxybenzylcarbamate] | impair | lower MAGE levels | 200 nM | ~200 nM | 117 nM | < 1000 nM | cross-reactivity | 1000 nM |  |  | 
2 | CC(C)c1ccccc1OC(=O)NCCc1ccc2ccccc2c1 [JW480, 2-isopropylphenyl (2-(naphthalen-2-yl)ethyl)carbamate] | impair | lower MAGE levels | 20 nM | 20 nM | 13.9 nM |  | negligible cross-reactivity | > 100000 nM | reduced | significant reductions | ~10 nM
